Measured values as given in US9102591B2, “Benzamides” (H. Lundbeck A/S, priority 2012, dated 2015).

Target: P2X7 receptor (Homo sapiens (Human), UniProt Q99572)
Experiment: P2X7 FLIPR assay (BzATP-stimulated calcium fluorescence, antagonist IC50)
Assay type: cell-based
How it was run: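 Cells expressing P2X7 receptor (human, rat or mouse), plated 24 hours earlier in low-serum medium, loaded with Fluo-4 NW dye (30 min 37° C, 30 min room temperature).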

Chain of P2X7 receptor (Q99572 whole entry): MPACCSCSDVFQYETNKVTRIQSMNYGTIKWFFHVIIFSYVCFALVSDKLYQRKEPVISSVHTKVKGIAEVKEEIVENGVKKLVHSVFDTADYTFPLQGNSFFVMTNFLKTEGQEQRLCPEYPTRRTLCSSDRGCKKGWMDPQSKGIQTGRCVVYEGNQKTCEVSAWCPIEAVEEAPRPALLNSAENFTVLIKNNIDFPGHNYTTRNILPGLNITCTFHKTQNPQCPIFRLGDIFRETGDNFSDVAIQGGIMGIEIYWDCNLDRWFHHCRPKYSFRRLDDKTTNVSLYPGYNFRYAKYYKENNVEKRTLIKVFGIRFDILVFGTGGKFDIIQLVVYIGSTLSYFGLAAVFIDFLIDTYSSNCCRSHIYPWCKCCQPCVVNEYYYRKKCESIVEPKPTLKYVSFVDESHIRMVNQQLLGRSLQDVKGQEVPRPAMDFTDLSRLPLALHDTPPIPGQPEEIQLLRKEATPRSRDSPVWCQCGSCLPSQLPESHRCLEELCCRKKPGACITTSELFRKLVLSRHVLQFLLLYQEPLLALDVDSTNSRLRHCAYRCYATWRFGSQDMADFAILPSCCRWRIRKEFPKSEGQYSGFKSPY

| SMILES | IC50 [nM] |
| --- | --- |
| Cc1cccc(C(=O)NCC2(c3ccc(C(F)(F)F)nc3)CCC(F)(F)CC2)c1Cl [2-chloro-N-((4,4-difluoro-1-(6-(trifluoromethyl)pyridin-3-yl)cyclohexyl)methyl)-3-methylbenzamide] | 0.54 |
| O=C(NCC1(c2ccc(C(F)(F)F)nc2)CCC(F)(F)CC1)c1ccccc1Cl [2-chloro-N-((4,4-difluoro-1-(6-(trifluoromethyl)pyridin-3-yl)cyclohexyl)methyl)benzamide] | 2 |
| O=C(NCC1(c2ccc(F)nc2)CCC(F)(F)CC1)c1cccc(F)c1Cl [2-chloro-N-((4,4-difluoro-1-(6-fluoropyridin-3-yl)cyclohexyl)methyl)-3-fluorobenzamide] | 5.3 |
| CS(=O)(=O)c1ccc(Cl)c(C(=O)NCC2(c3ccc(F)nc3)CCC(F)(F)CC2)c1 [2-chloro-N-((4,4-difluoro-1-(6-fluoropyridin-3-yl)cyclohexyl)methyl)-5-(methylsulfonyl)benzamide] | 8.7 |
| COc1ccc(Cl)c(C(=O)NCC2(c3ccc(F)nc3)CCC(F)(F)CC2)c1 [2-chloro-N-((4,4-difluoro-1-(6-fluoropyridin-3-yl)cyclohexyl)methyl)-5-methoxybenzamide] | 0.83 |
| O=C(NCC1(c2ccc(F)nc2)CCC(F)(F)CC1)c1ccccc1Cl [2-chloro-N-((4,4-difluoro-1-(6-fluoropyridin-3-yl)cyclohexyl)methyl)benzamide] | 25 |
| Cc1ncc(C2(C(C)NC(=O)c3cccc(F)c3Cl)CCC(F)(F)CC2)cn1 (stereo not drawn) [2-chloro-N-[1-[4,4-difluoro-1-(2-methylpyrimidin-5-yl)cyclohexyl]ethyl]-3-fluoro-benzamide] | 2000 |
| Cc1ncc(C2(C(C)NC(=O)c3c(F)cccc3Cl)CCC(F)(F)CC2)cn1 (stereo not drawn) [2-chloro-N-[1-[4,4-difluoro-1-(2-methylpyrimidin-5-yl)cyclohexyl]ethyl]-6-fluoro-benzamide] | 1400 |
| O=C(NCC(c1ccc(Cl)cc1)C1CCOCC1)c1cccc(F)c1Cl (stereo not drawn) [2-chloro-N-[2-(4-chlorophenyl)-2-tetrahydropyran-4-yl-ethyl]-3-fluoro-benzamide] | 15 |
| O=C(NCC(c1ccc(Cl)cc1)C1CCOCC1)c1c(F)cccc1Cl (stereo not drawn) [2-chloro-N-[2-(4-chlorophenyl)-2-tetrahydropyran-4-yl-ethyl]-6-fluoro-benzamide] | 30 |
| O=C(NCC(c1ccncc1)c1ccc(C(F)(F)F)nc1)c1ccccc1Cl (stereo not drawn) [2-chloro-N-[2-(4-pyridyl)-2-[6-(trifluoromethyl)-3-pyridyl]ethyl]benzamide] | 11 |
| O=C(NCC(CC1(C(F)(F)F)CC1)c1ccc(C(F)(F)F)nc1)c1ccccc1Cl (stereo not drawn) [2-chloro-N-[3-[1-(trifluoromethyl)cyclopropyl]-2-[6-(trifluo] [2-chloro-N-[3-[1-(trifluoromethyl)cyclopropyl]-2-[6-(trifluoromethyl)-3-pyridyl]propyl]benzamide] | 2.1 |
| Cc1ncc(C(CNC(=O)c2ccccc2Cl)CC2CC2)cn1 (stereo not drawn) [2-chloro-N-[3-cyclopropyl-2-(2-methylpyrimidin-5-yl)propyl]benzamide] | 1200 |
| O=C(NCC(CC1CC1)c1ccc(C(F)(F)F)nc1)c1ccccc1Cl (stereo not drawn) [2-chloro-N-[3-cyclopropyl-2-[6-(trifluoromethyl)-3-pyridyl]propyl]benzamide] | 3.4 |
| CC(CNC(=O)c1cccc(F)c1Cl)(CC1CC1)c1cnc(C(F)(F)F)nc1 (stereo not drawn) [2-chloro-N-[3-cyclopropyl-2-methyl-2-[2-(trifluoromethyl)pyr] [2-chloro-N-[3-cyclopropyl-2-methyl-2-[2-(trifluoromethyl)pyrimidin-5-yl]propyl]-3-fluoro-benzamide] | 16 |
| CC(CNC(=O)c1ccccc1Cl)(CC1CC1)c1cnc(C(F)(F)F)nc1 (stereo not drawn) [2-chloro-N-[3-cyclopropyl-2-methyl-2-[2-(trifluoromethyl)pyr] [2-chloro-N-[3-cyclopropyl-2-methyl-2-[2-(trifluoromethyl)pyrimidin-5-yl]propyl]benzamide] | 21 |

Other lines, results leading:

| IC50 [nM] | SMILES |
| --- | --- |
| 1.4 | O=C(NCC1(c2ccc(C(F)(F)F)nc2)CCC(F)(F)CC1)c1cccc(F)c1Cl [2-chloro-N-((4,4-difluoro-1-(6-(trifluoromethyl)pyridin-3-yl)cyclohexyl)methyl)-3-fluorobenzamide] |
| 7.1 | COc1cccc(C(=O)NCC2(c3ccc(C(F)(F)F)nc3)CCC(F)(F)CC2)c1Cl [2-chloro-N-((4,4-difluoro-1-(6-(trifluoromethyl)pyridin-3-yl)cyclohexyl)methyl)-3-methoxybenzamide] |
| 1800 | CS(=O)(=O)c1ccc(C(=O)NCC2(c3ccc(C(F)(F)F)nc3)CCC(F)(F)CC2)c(Cl)c1 [2-chloro-N-((4,4-difluoro-1-(6-(trifluoromethyl)pyridin-3-yl)cyclohexyl)methyl)-4-(methylsulfonyl)benzamide] |
| 1600 | Cc1ncc(C2(C(C)NC(=O)c3ccccc3Cl)CCC(F)(F)CC2)cn1 (stereo not drawn) [2-chloro-N-[1-[4,4-difluoro-1-(2-methylpyrimidin-5-yl)cyclohexyl]ethyl]benzamide] |
| 1300 | Cc1ncc(C(CNC(=O)c2ccccc2Cl)c2ccncc2)cn1 (stereo not drawn) [2-chloro-N-[2-(2-methylpyrimidin-5-yl)-2-(4-pyridyl)ethyl]benzamide] |
| 83 | Cc1ncc(C(CNC(=O)c2cccc(F)c2Cl)C2CCC(F)(F)CC2)cn1 (stereo not drawn) [2-chloro-N-[2-(4,4-difluorocyclohexyl)-2-(2-methylpyrimidin-5-yl)ethyl]-3-fluoro-benzamide] |
| 150 | Cc1ncc(C(CNC(=O)c2c(F)cccc2Cl)C2CCC(F)(F)CC2)cn1 (stereo not drawn) [2-chloro-N-[2-(4,4-difluorocyclohexyl)-2-(2-methylpyrimidin-5-yl)ethyl]-6-fluoro-benzamide] |
| 90 | Cc1ncc(C(CNC(=O)c2ccccc2Cl)C2CCC(F)(F)CC2)cn1 (stereo not drawn) [2-chloro-N-[2-(4,4-difluorocyclohexyl)-2-(2-methylpyrimidin-5-yl)ethyl]benzamide] |
| 14 | O=C(NCC(c1ccc(Cl)cc1)C1CCOCC1)c1ccccc1Cl (stereo not drawn) [2-chloro-N-[2-(4-chlorophenyl)-2-tetrahydropyran-4-yl-ethyl]benzamide] |
| 30 | O=C(NCC(c1ccncc1)c1cnc(C(F)(F)F)nc1)c1ccccc1Cl (stereo not drawn) [2-chloro-N-[2-(4-pyridyl)-2-[2-(trifluoromethyl)pyrimidin-5-yl]ethyl]benzamide] |
| 94 | O=C(NCC(CC1(C(F)(F)F)CC1)c1ccc(C2CC2)nc1)c1ccccc1Cl (stereo not drawn) [2-chloro-N-[2-(6-cyclopropyl-3-pyridyl)-3-[1-(trifluoromethyl)cyclopropyl]propyl]benzamide] |
| 120 | Cc1ncc(C2(CNC(=O)c3ccccc3Cl)CCC(F)(F)CC2)cn1 [2-chloro-N-[[4,4-difluoro-1-(2-methylpyrimidin-5-yl)cyclohexyl]methyl]benzamide] |
| 1.2 | O=C(NCC1(c2ccc(F)nc2)CCC(F)(F)CC1)c1cc(C(F)(F)F)ccc1Cl [2-chloro-N-[[4,4-difluoro-1-(6-fluoro-3-pyridyl)cyclohexyl]methyl]-5-(trifluoromethyl)benzamide] |
| 0.76 | Cc1ccc(Cl)c(C(=O)NCC2(c3ccc(F)nc3)CCC(F)(F)CC2)c1 [2-chloro-N-[[4,4-difluoro-1-(6-fluoro-3-pyridyl)cyclohexyl]methyl]-5-methyl-benzamide] |
